Consider six compounds from patent US7977466B2, “C-glycoside derivatives and salts thereof” (Astellas Pharma Inc., priority 2003, dated 2011).

Structures are written as SMILES.

One assay addresses T1, human SGLT2 (Homo sapiens, UniProt P31639).
T1 construct: expressed in transfected cells; host or cells: CHO-K1
T1 sequence (P31639 1-672): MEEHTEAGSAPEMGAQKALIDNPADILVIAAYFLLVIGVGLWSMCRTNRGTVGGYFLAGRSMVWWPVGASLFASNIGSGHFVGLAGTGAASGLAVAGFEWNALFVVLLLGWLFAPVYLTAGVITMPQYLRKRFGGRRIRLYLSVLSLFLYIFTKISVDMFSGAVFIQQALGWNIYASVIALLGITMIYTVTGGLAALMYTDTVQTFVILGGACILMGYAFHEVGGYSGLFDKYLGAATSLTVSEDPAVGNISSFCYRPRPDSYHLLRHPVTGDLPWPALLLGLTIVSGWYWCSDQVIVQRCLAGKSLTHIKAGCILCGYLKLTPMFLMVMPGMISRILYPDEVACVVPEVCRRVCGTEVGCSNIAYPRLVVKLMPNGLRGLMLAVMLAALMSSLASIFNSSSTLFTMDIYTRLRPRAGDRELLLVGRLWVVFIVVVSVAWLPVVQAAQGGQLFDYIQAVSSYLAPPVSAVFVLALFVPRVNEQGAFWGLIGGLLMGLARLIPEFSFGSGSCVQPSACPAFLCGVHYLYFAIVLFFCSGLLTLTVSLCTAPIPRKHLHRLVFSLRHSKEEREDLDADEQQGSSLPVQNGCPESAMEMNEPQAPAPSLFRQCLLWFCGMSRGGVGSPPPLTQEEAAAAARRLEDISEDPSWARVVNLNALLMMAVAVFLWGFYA
The experiment in a line: Inhibition of human Na+-glucose cotransporter (human SGLT2) activity: methyl-α-D-glucopyranoside intake in CHO cells stably expressing human SGLT2. Format: cell-based. The note with it: CHO cell stably expressing human SGLT2; methyl-α-D-(U-14C)glucopyranoside intake, 37° C., two hours. The text has this: Inhibition of Human Na^+-Glucose Cotransporter (Human SGLT2) Activity
(1) Preparation of Human SGLT 2 Expression Vector
First, single-strand cDNA was reversely transcripted from total RNA originating from the human kidney (manufactured by BD Biosciences Clontech) using a Superscript II (manufactured by Invitrogen Corporation) and a random hexamer. Second, using the cDNA as a template, a DNA fragment encoding a human SGLT2 (Wells, R. G. et al., Am. J. Physiol., 1992, 263(3) F459) was amplified by the PCR reaction using Pyrobest DNA polymerase (manufactured by Takara Bio Inc.). That is, a Hind III site and an EcoRI site were inserted into the 5′ side and the 3′ side of the DNA fragment, respectively by using primers.
The amplified fragment was cloned into a pCR2.1-Topo vector using a Topo TA Cloning Kit (manufactured by Invitrogen Corporation) and the cloned vector was transfected into a competent cell of Escherichia coli JM109. Ampicillin-resistant clones were cultured in a LB medium containing ampicillin (100 mg/l). A plasmid was purified from the cultured Escherichia coli using the method of Hanahan (see Maniatis et al., “Molecular Cloning”). A DNA fragment for encoding a human SGLT2 was obtained by the Hind III/EcoRI digestion of the plasmid and ligated and cloned to the same site of the expression vector pcDNA 3.1 (manufactured by Invitrogen Corporation) using a DNA ligase (manufactured by Roche Diagnostics). The ligated clone was transfected into a competent cell of Escherichia coli JM109 in the same manner as described above and cultured in a LB medium containing ampicillin, and a human SGLT2 expression vector was obtained using the method of Hanahan.
(2) Preparation of Human SGLT2 Expressed Cells
The human SGLT2 expression vector was transfected into a CHO-K1 cell using Lipofectamine2000 (manufactured by Invitrogen Corporation). The cell was cultured in a Ham's F12 medium (manufactured by Nissui Pharmaceutical Co., Ltd.) containing penicillin (50 IU/ml, manufactured by Dainippon Pharmaceutical Co., Ltd.), streptomycin (50 μg/ml, manufactured by Dainippon Pharmaceutical Co., Ltd.), Geneticin (40 μg/ml, manufactured by Invitrogen Corporation), and 10% fetal bovine serum in the presence of 5% CO2 at 37° C. for two weeks, and Geneticin-resistant clones were obtained.
(3) Inhibition of methyl-α-D-glucopyranoside Intake
After removing the medium of a CHO cell which stably expresses the human SGLT2, a pretreatment buffer solution (buffer solution of pH 7.4 containing choline chloride (140 mM), potassium chloride (2 mM), calcium chloride (1 mM), magnesium chloride (1 mM), 2-[4-(2-hydroxyethyl)1-piperazinyl]ethanesulfonic acid (10 mM), and tris(hydroxymethyl)aminomethane (5 mM)) was added in the amount of 100 μl per well, and incubated at 37° C. for 20 minutes.
11 μl of methyl-α-D-(U-14C)glucopyranoside (manufactured by Amersham Pharmacia Biotech) was mixed with 1,000 μl of a buffer solution for intake containing a test compound (buffer solution of pH 7.4 containing sodium chloride (140 mM), potassium chloride (2 mM), calcium chloride (1 mM), magnesium chloride (1 mM), methyl-α-D-glucopyranoside (50 μM), 2-[4-(2-hydroxy ethyl)1-piperazinyl]ethanesulfonic acid (10 mM), and tris(hydroxymethyl)aminomethane (5 mM)) to prepare a buffer solution for intake. A buffer solution for intake without a test compound was prepared for a control group. A buffer solution for basal intake without a test compound containing choline chloride (140 mM) instead of sodium chloride for measuring the basal intake was prepared as well.
After removing the pretreatment buffer solution, the buffer solution for intake was added (25 μl per well) and incubated at 37° C. for two hours. […]

In assay [1] the test system is blood glucose of KK-A^y mice. The experiment in a line: Hypoglycemic activity confirmation test in fed KK-Ay mice. In kind it is in vivo, mouse. The note with it: fed male KK-A^y mice, oral, suspension 1 mg/10 ml in 0.5% methylcellulose at 10 ml/kg. As to the method:
Hypoglycemic Activity Confirmation Test
Fed KK-A^y mice (CLEA Japan, Inc., male) were used. The test compound was suspended in 0.5% methylcellulose solution to a concentration of 1 mg/10 ml. The weight of each mouse was measured. The test compound suspension was orally administered to the mice at a dose of 10 ml/kg. Only 0.5% methylcellulose solution was administered to the mice of a control group. Each group consisted of six mice. Blood was collected from the tail vein immediately before administering the compound and one, two, four, and eight hours after administering the compound. The blood glucose value was measured using a glucose CII Test Wako (manufactured by Wako Pure Chemical Industries, Ltd.). The intensity of hypoglycemic activity was determined by calculating the area under the blood glucose value-time curve (AUC) using a trapezoidal method from the glucose value of 0-8 hours after administering the compound and calculating the rate (%) of the decrease in the AUC of the drug-administered group from that of the control group.

For orientation: IC50 means the concentration needed to halve the response being measured. A high value points to a need for much substance. On to `OC[C@H]1O[C@@H](c2cc(Cc3cc4ccccc4s3)c(O)cc2O)[C@H](O)[C@@H](O)[C@@H]1O` [Example 142], for which the midpoint of inhibition against human SGLT2, the IC50, lay at 21 nM. In other words, the double-digit nanomolar range. Regarding `COc1cc(OC)c([C@@H]2O[C@H](CO)[C@@H](O)[C@H](O)[C@H]2O)cc1Cc1cc2ccccc2s1` [Example 141], the IC50 against human SGLT2 amounted to 3.8 nM. Further, the “Hypoglycemic activity (rate of decrease in blood glucose AUC 0-8 hours versus control group)” value in assay [1] was determined as 34%.

At human SGLT2, `COc1ccc(Cc2cc3ccccc3s2)cc1[C@@H]1O[C@H](CO)[C@@H](O)[C@H](O)[C@H]1O` [Example 117] showed an IC50 of 13 nM. For `OC[C@H]1O[C@@H](c2cc(Cc3cc4ccsc4s3)ccc2O)[C@H](O)[C@@H](O)[C@@H]1O` [Example 174], on human SGLT2, the IC50 is 6.6 nM. Against the preceding compound, the IC50 is about 2-fold lower. For `COc1ccc([C@@H]2O[C@H](CO)[C@@H](O)[C@H](O)[C@H]2O)cc1Cc1cc2ccccc2s1` [Example 134], the IC50 on human SGLT2 stood at 14 nM. Also, the “Hypoglycemic activity (rate of decrease in blood glucose AUC 0-8 hours versus control group)” value in assay [1] stood at 39%. `CCc1ccc(Cc2nc([C@@H]3O[C@H](CO)[C@@H](O)[C@H](O)[C@H]3O)c(Cl)nc2Cl)cc1` [Example 150] registered an IC50 against human SGLT2 of 6.5 nM.
